Reference: US5385921A, “Pharmaceutical formulations” (Aktiebolaget Astra, priority 1990, dated 1995)

What was measured:
locomotor activity = assay: Sedation studies: suppression of locomotor activity in mice; format: in vivo, male TO mice; settings: Mus musculus, recording starts 20 min after administration, 30 min period, weights refer to the free base, read-out: Sedation ED50 (dose required to reduce locomotor activity by 50%)
Experimental: (§1) Animals used were male Wistar rats (140-170 g) and male TO mice (18-30 g).
(§2) All drugs were dissolved in isotonic saline. Weights refer to the free base.
The test drug was administered to mice and starting 20 min later locomotor activity was recorded for a 30 min period. Activity was monitored using an infra-red light beam interruption system in cages measuring 40 cm×40 cm. Data are expressed as the dose required to reduce locomotor activity by 50% (ED50).

[1] = test system: Pentylenetetrazol (PTZ) seizures; assay: Pentylenetetrazol (PTZ) seizures: seizure threshold in rats; format: in vivo, male Wistar rats; settings: Rattus norvegicus, 0.25 h, drug 15 min before PTZ infusion into tail vein, weights refer to the free base, read-out: PTZ seizures TI50 (dose required to increase seizure threshold by 50%)
Experimental: as §1, §2
Seizure threshold was assessed in rats by measurement of the dose of PTZ required to elicit a seizure when infused through a tail vein. PTZ (10 mg/ml) was infused into the tail vein at a rate of […] and the time to the first clonic convulsion measured. Seizure threshold was calculated as described by Green & Murray, J. Pharm. Pharmacol. 1989, 41: 879-880. Drugs were administered 15 min before the PTZ. Data are expressed as the dose required to increase seizure threshold by 50% (TI50).

[2] = test system: N-methyl-D-aspartate (NMDA) seizures; assay: N-methyl-D-aspartate (NMDA) seizures: tonic convulsions in mice; format: in vivo, male TO mice; settings: Mus musculus, drug 15 min before NMDA 300 mg/kg i.p., weights refer to the free base, read-out: NMDA seizures ED50 (dose required to decrease the incidence of tonic convulsions by 50%)
Experimental: as §1, §2
Drugs were adminstered 15 min before the NMDA, and data are expressed as the dose required to decrease the incidence of tonic convulsions by 50% (ED50).

[3] = test system: CA1/CA2 hippocampal neurones; assay: Neuroprotection studies: damage to CA1/CA2 hippocampal neurones in gerbils after carotid artery occlusion; format: in vivo, gerbil
Experimental: as §2
Ischaemia was induced in gerbils, by occlusion of the carotid arteries following the accepted general procedure as described in, for example, EP 230 370 and R. Gill, A. C. Foster and G. N. Woodruff, J. Neuroscience, 1987, 7, 3343-3349.
Ischaemia was induced in the animals by 5 minute occlusion of both carotid arteries. Body temperature was maintained at 37° C. throughout. Restoration of blood flow after occlusion was checked visually and the animals were allowed to survive for 4 days. The extent of neuronal degeneration in the hippocampus was then assessed. The test compounds were adminstered (i.p.) as a single dose 60 minutes following occlusion. No administration was made prior to the occlusion.

SMILES	ED50 (locomotor activity)	ED50 [1]	ED50 [2]	% Damage to CA1/CA2 Hippocampal Neurones ([3]; 100 mg/kg i.p. single dose 60 minutes after induction of ischaemia, n=8, assessed after 4 days, untreated (None) 92 ±7)	reduction of damage to the CA1/CA2 hippocampal neurones (in words) ([3]; i.p., single dose 60 minutes following occlusion)
Cc1ncsc1C(O)CCl (centres unmarked) [5-(2-Chloro-1-hydroxyethyl)-4-methylthiazole ethandisulphonate]	52 mg/kg	34 mg/kg	40 mg/kg	–	–
Cc1ncsc1C(O)CCl.Cl (centres unmarked) [5-(2-chloro-1-hydroxyethyl)-4-methylthiazole hydrochloride salt]	–	–	–	64 ±8%	effective in reducing the damage to the CA1/CA2 hippocampal neurones
